Legend:
[1] = system: Proliferating melanocytes from human foreskin; test: BrdU incorporation in proliferating melanocytes; assay type: cell-based
Experimental: (§1) Human foreskin melanocytes (Promocell) were grown in serum-free M2 medium (Promocell). WM-115, SK-MEL-2, SK-MEL-5, MeWo and COS7 cell lines (ATCC) were grown as specified. Tumors were chopped, incubated in E-MEM (Sigma) containing collagenase A (300 U/ml, Worthington) and hyaluronidase (100 U/ml, Sigma), mechanically dissociated and plated in E-MEM with 10% FBS, 1 mM sodium pyruvate (GIBCO) and 1 ng/ml EGF (GIBCO). […] All melanoma samples and BCC were obtained following approved protocols.
(§2) Commercial N-SHH (R&D Systems) was used at 100 nM. 5E1 anti-SHH blocking antibody (Hybridoma Bank, University of Iowa) was used at 10 μg/ml. Forskolin (FK) and 1,9-dideoxyforskolin (ddFK; Sigma) were used at 50 μM. […] MEK-1 (U0126; Promega), EGFR (AG1478; Biosource) and AKT (SH6; Alexis corporation) inhibitors were used at 1, 10, and 40 μM, respectively, dissolved in DMSO. Drug treatments were for 48 h in 2.5% serum. BrdU (Sigma) was pulsed at 4 μg/ml for 2 h before fixation followed by immunodetection with anti-BrdU antibodies (BD Biosciences). The number of viable cells was assessed by Trypan blue exclusion (Promega).

[2] = system: WM115, SK-MEL-2, SK-MEL-5 and MeWo cell lines; test: BrdU incorporation in melanoma cell lines; assay type: cell-based, human
Experimental: as §1, §2

[3] = system: human melanoma primary cultures and cell lines; test: BrdU incorporation in melanoma primary cultures and cell lines; assay type: cell-based
Experimental: as §1, §2

[4] = system: GLI1, PTCH1, BMI1, FOXM1, MITFM expression; test: qPCR gene expression in melanoma cultures; assay type: cell-based, human
Experimental: (§3) Real-time quantitative PCR amplifications with different primers (Suppl. Materials) were carried out at 60° C. on an Opticon machine (MJ Research) using iQ™ SYBR Green supermix (Biorad) and values calculated using the standard curve method.
as §2

WM-115, Me-3 and MeWo = test: long-term cyclopamine treatment and recovery of cultures; assay type: cell-based, human; conditions: ten days, drug-containing media anew every 2 days
MeWo/LacZ melanomas = test: subcutaneous MeWo/LacZ melanoma xenografts in nude mice; assay type: in vivo, mouse
Experimental: (§5) 5×10^5 MeWo/LacZ, WM-115 or 10^6 primary Me-3 melanoma cells were inoculated subcutaneously (s.c.) at two sides per adult male (NMRI-nu) nude mouse and the tumors were measured daily. […] For metastasis studies, 1×10^6 Mewo/LacZ cells were injected into the tail vein (i.v.) of adult male nude mice. […] At the end of the treatment the lungs were dissected and stained with XGal.

[5] = system: WM-115 subcutaneous tumors; test: subcutaneous WM-115 melanoma xenografts in nude mice; assay type: in vivo, mouse; conditions: n=2 treated vs n=2 carrier
Experimental: as §5

[6] = system: HRAS^V12G or NRAS^Q61K transfected WM-115 and SK-Mel2 cells; test: oncogenic RAS-transfection enhanced BrdU incorporation (Example 2); assay type: cell-based, human
Experimental: Forskolin (FK) and 1,9-dideoxyforskolin (ddFK; Sigma) were used at 50 μM. MEK-1 (U0126; Promega), and AKT (SH6; Alexis corporation) inhibitors were used at 1 and 40 μM, respectively, dissolved in DMSO. U0126 and SH6 were used for 1 h, 48 h post-transfection. Leptomycin B (LMB; Sigma) was used at 5 nM for 6 h, 48 h post-transfection. BrdU (Sigma) was pulsed at 4 μg/ml for 2 h before fixation followed by immunodetection with anti-BrdU antibodies (BD Biosciences). The number of viable cells was assessed by Trypan blue exclusion (Promega). […] (SEQ ID NO: 57) (target-validated from Ambion). […] SEQ ID NO: 58) (Sanchez, P. et al. Inhibition of prostate cancer proliferation by interference with SONIC HEDGEHOG-GLI1 signaling. Proc. Natl. Acad. Sci. USA. 101, 12561-12566 (2004)). siRNA transfections (0.2 μM) were performed with Oligofectamine (Invitrogen) for 48 h.
Cells were transfected (3 μg/p35 plate) with myc-tagged full-length CMV expression vectors with FUGENE (Roche). Transfections were at equimolar amounts unless otherwise specified with combinations of pCS2-Myc-tagged human GLI1, GLI3, GLI3R (GLI3C′ΔClaI), frog Gli2R (Gli2C′) (Ruiz i Altaba, A. Gli proteins encode context-dependent positive and negative functions: implications for development and disease. Development 126, 3205-3216 (1999), pCMV-HA-tagged GLI1 (ref. 20), HRAS^V12G (from A. Pellicer), NRAS^Q61K (Ackermann, J. et al. Metastasizing melanoma formation caused by expression of activated N-RasQ61K on an INK4a-deficient background. Cancer Res. 65, 4005-4011 (2005)), activated (myristoylated) myc-tagged AKT1 (Upstate), activated MEK1 (p45MAPKK^S222D; from J. Pouyssegur), Myc-tagged SUFUH (Kogerman, P. et al. Mammalian suppressor-of-fused modulates nuclear-cytoplasmic shuttling of Gli-1. Nat Cell Biol. 1, 312-319 (1999)), and pCMV-eGFP or pCMV-lacZ.

p-ERK, p-AKT = test: levels of p-ERK or p-AKT in melanoma cells; assay type: cell-based, human; conditions: cyclopamine treatment
[7] = system: NRAS^Q61K mouse melanoma primary cultures; test: BrdU incorporation in primary cultures of Tyr-NRAS^Q61K; Ink4a−/− mouse melanomas; assay type: cell-based; conditions: 10 μM
Experimental: WM-115, SK-MEL-2 and COS7 cell lines (ATCC) were grown according to the specifications of the provider. The primary Me-3 melanoma (Stecca, B. et al. Melanocyte proliferation and melanoma growth, recurrence and metastasis require sustained SONIC HEDGEHOG-GLI signaling. Submitted. (2006)) was grown in E-MEM with 10% FBS (Hyclone), 1 mM sodium pyruvate (GIBCO) and 1 ng/ml EGF (GIBCO). Proliferating human melanocytes from foreskin (Promocell) were grown in M2 media (Promocell). Melanomas from ±6 month-old Tyr→NRAS^Q61K; Ink4a^−/− mice on a light coat color Dct^−/− background^13 were collected from the skin and lymph nodes. Tumors were dissociated and grown in E-MEM with 10% FBS, 1 mM sodium pyruvate (GIBCO) and 1 ng/ml EGF (GIBCO). Mouse embryonic fibroblasts (MEFs) were prepared from E14.5 Swiss Webster mouse embryos and grown in DMEM with 10% FBS.
Forskolin (FK) and 1,9-dideoxyforskolin (ddFK; Sigma) were used at 50 μM. MEK-1 (U0126; Promega), and AKT (SH6; Alexis corporation) inhibitors were used at 1 and 40 μM, respectively, dissolved in DMSO. U0126 and SH6 were used for 1 h, 48 h post-transfection. Leptomycin B (LMB; Sigma) was used at 5 nM for 6 h, 48 h post-transfection. BrdU (Sigma) was pulsed at 4 μg/ml for 2 h before fixation followed by immunodetection with anti-BrdU antibodies (BD Biosciences). The number of viable cells was assessed by Trypan blue exclusion (Promega). […]

Mewo cells = test: BrdU incorporation, AKT inhibitor plus cyclopamine; assay type: cell-based, human; conditions: 5 μM cyclopamine plus 20 μM SH6, 48 hours
Experimental: (§4) Cell proliferation was assessed after incubation with BrdU as described.

WM115 cells = test: BrdU incorporation, MEK inhibitor plus cyclopamine; assay type: cell-based, human; conditions: 5 μM cyclopamine plus 1 μM U0126, 48 hours
Experimental: as §4

[8] = system: GLI1 transcriptional activity; test: GLI luciferase reporter assay (7 GLI binding site reporter) in COS7 cells; assay type: cell-based, monkey
[9] = system: Nude Harlan Sprague-Dawley Mice/lung (A-549, Calu-1) tumors; conditions: 70 mg/kg/d; cited from earlier work
[10] = system: EJ-1 human bladder carcinoma; conditions: in vivo; cited from earlier work
[11] = system: ras-transformed rat kidney cell; conditions: cited from earlier work
human cancer cells = conditions: cited from earlier work
Nude mice/HIG3T3 = conditions: nude mice transplanted with activated H-Ras-transformed HIG3T3 cells; cited from earlier work
[12] = system: GLI1, HIP and MITFM expression; test: qPCR gene expression in proliferating melanocytes after SHH; assay type: cell-based, human; conditions: SHH treatment, 8 h, qPCR normalized to GAPDH
Experimental: as §3

[13] = system: primary cultures Me-1 to Me-5 (melanoma metastases); test: BrdU incorporation in melanoma primary cultures; assay type: cell-based, human; conditions: exogenous recombinant SHH ligand, 48 h; fraction of five primary cultures
Experimental: as §1, §2

[14] = system: GLI1-transfected WM-115, SK-MEL-2 and SK-MEL-5; test: GLI1-transfection enhanced BrdU incorporation, treatment with inhibitors; assay type: cell-based, human; conditions: 48 h treatment
Experimental: as §2

Molecule: CC1=C2C[C@H]3[C@@H](CC=C4C[C@@H](O)CC[C@@]43C)[C@@H]2CC[C@]12O[C@@H]1C[C@H](C)CN[C@H]1[C@H]2C [cyclopamine]
- induction of the senescence marker SA-β-gal ([1]; cyclopamine treatment): did not induce
- sensitivity of tumor-derived MeWo/lacZ cells to cyclopamine in vitro versus parental cells ([2]; cells from systemically treated tumors): same sensitivity
- response of BrdU incorporation to cyclopamine ([3]; 24-48 h, dose-dependent, compared with tomatidine): all responded
- GLI1 expression ([4]; 24-48 h cyclopamine treatment): decreased GLI1 expression
- PTCH1 expression ([4]; cyclopamine 8 h, 3 primary cultures tested): inhibited PTCH1 expression
- Expression of BMI1, FOXM1 and MITFM ([4]; cyclopamine 8 h, primary cultures): repressed
- BrdU incorporation after long-term treatment (WM-115, Me-3 and MeWo): inhibit all BrdU incorporation
- recurrence after sustained treatment (MeWo/LacZ melanomas; 20 d treatment after tumor disappearance, 42 additional days): no recurrences
- tumor response to injection into the tumor (MeWo/LacZ melanomas; cyclodextrin-complexed cyclopamine injected into the tumor, tumors ±10 mm^3 or ±65 mm^3, vs cyclodextrin alone): rapid regression and disappearance of the tumors
- cured tumors containing small pockets of β-gal+ tumor cells or groups of single cells (MeWo/LacZ melanomas; five cured tumors taken 1-2 days after macroscopic disappearance): ⅘
- time to tumor reappearance (MeWo/LacZ melanomas; from the end of 3 d and 10 d additional treatment after tumor disappearance): 2 to 7 days
- decrease in tumor volume (MeWo/LacZ melanomas; systemic treatment of large subcutaneous tumors (±65 mm^3), 16 days, vs carrier-only): 33%
- tumor response to cyclopamine treatment [5]: lead to their disappearance
- inhibition of oncogenic RAS-enhanced BrdU incorporation ([6]; WM-115 and SK-Mel2): 65-75%
- levels of p-ERK or p-AKT (p-ERK, p-AKT): did not alter
- number of doubly BrdU+/GFP+ cells ([7]; two primary cultures (1-PM2, 1-LNM5), GFP plus control plasmid): decreased the number of doubly BrdU+/GFP+ cells
- effect on BrdU incorporation of suboptimal cyclopamine combined with SH6 (Mewo cells): significantly effective
- effect on BrdU incorporation of suboptimal cyclopamine combined with U0126 (WM115 cells): significantly effective

Molecule: C[C@H]1CC[C@]2(NC1)O[C@H]1C[C@H]3[C@@H]4CC[C@H]5C[C@@H](O)CC[C@]5(C)[C@H]4CC[C@]3(C)[C@H]1[C@@H]2C [tomatidine]
- proliferation of all 12 primary cultures ([7]; 48 h): no effect

Molecule: CCC(=C/[C@H](C)C/C=C/C(C)=C/[C@@H](C)C(=O)[C@@H](C)[C@H](O)[C@@H](C)C/C(C)=C/C(=O)O)/C=C/[C@@H]1OC(=O)C=C[C@@H]1C [LMB]
- increase of GLI1-induced luciferase activity ([8]; GLI1 alone, 4 h treatment with LMB): ~3 fold
- further increase in GLI activity ([8]; cells coexpressing GLI1 and NRAS^Q61K, LMB treatment): ~3 fold

Molecule: CC(C)C[C@H](NC(=O)c1ccc(NC[C@@H](N)CS)cc1-c1cccc2ccccc12)C(=O)O [GGTI-297]
- GROWTH INHIBITION [9]: 56%-70%

Molecule: COC(=O)[C@H](CCSC)NC(=O)[C@H](/C=C\[C@@H](/C=C/[C@@H](N)CS)C(C)C)Cc1ccccc1 [B1086]
- tumor growth [10]: inhibit tumor growth

Molecule: Cc1ccc(S(=O)(=O)N[C@@H](Cc2ccccc2)C(=O)CCl)cc1 [TPCK]
- cell growth [11]: potently inhibit
- anchorage-independent clonogenic growth (human cancer cells): almost completely block

Molecule: C[C@H]([C@H](C/C=C/c1nc2ccccc2o1)c1ccc2c(c1)OCO2)N(Cc1ccc2ccccc2c1)C(=O)[C@H]1OC(C(=O)O)(C(=O)O)O[C@H]1C(=O)O [J-104871]
- tumor growth (Nude mice/HIG3T3): suppressed tumor growth

Molecule: SHH: Commercial N-SHH (R&D Systems), recombinant SHH ligand
- increase in proliferation ([1]; recombinant SHH ligand, 48 h, over PBS): ⅓
- induction of GLI1 expression [12]: 2-3 fold
- induction of HIP expression [12]: 2-3 fold
- induction of MITFM expression [12]: 6 fold
- primary cultures with increased BrdU incorporation above a basal level (10%) [13]: ⅘
- cell lines with increased BrdU incorporation above a basal level (10%) ([2]; exogenous recombinant SHH ligand, 48 h, fraction of four cell lines): ¾

Molecule: C=C[C@@]1(C)CC(=O)[C@]2(O)[C@@]3(C)[C@@H](O)CCC(C)(C)[C@@H]3[C@H](O)[C@H](OC(C)=O)[C@@]2(C)O1 [Forskolin]
- inhibition of oncogenic RAS-induced proliferation ([6]; SK-Mel2): 100%
- inhibition of oncogenic RAS-induced proliferation ([6]; WM-115): ~80%

Molecule: COc1cc2ncnc(Nc3cccc(Cl)c3)c2cc1OC [AG1428]
- BrdU incorporation ([3]; 48 h, all four melanoma cell lines tested and Me-3): decreased BrdU incorporation
- effect on GLI1-enhanced proliferation [14]: reversed

Source: patent US7709454B2, “Methods and compositions for inhibiting tumorigenesis” (New York University, priority 1997, dated 2010)
